{"source": "PubChem BioAssay AID540258", "about": "(Broad Institute, 2011)", "note": "The source made the active and inactive calls.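 Rule for the calls: active = fitted curve reaching 40% activation at or below the top valid dose tested; inconclusive = flat curve at 30 to 70% activation, or poor fit; inactive = the rest.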", "data": [{"test_system": "SK-MEL-5 TRPM1 promoter luciferase reporter, 24 h", "assay": "activation of TRPM1 promoter luciferase in melanoma cells – SK-MEL-5 cells, cherry-pick samples, dose response (AID 540258);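 note: potency for activators that raise TRPM1 promoter luciferase signal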", "values": [{"smiles": "Cc1ccccc1-c1nc2cc(Cl)ccc2o1", "AC40": "8.56 µM"}, {"smiles": "COc1ccc(C(=O)Nc2ccc3c4c(cccc24)CC3)cc1", "AC40": "13.3 µM"}, {"smiles": "CCN(CC)CC(=O)Nc1scc2c1c(=O)oc1ccccc12", "AC40": "6.27 µM"}, {"smiles": "O=C(Cc1ccccc1)Nc1nc(-c2cccs2)cs1", "AC40": "14.7 µM"}, {"smiles": "Cn1cccc1C(=O)C(=O)Nc1ccc(F)c(F)c1", "AC40": "0.855 µM"}, {"smiles": "CCCC(=O)Nc1ccc(C#Cc2ccccc2)cc1", "AC40": "1.63 µM"}, {"smiles": "Cc1ccc(NC(=O)CC(=O)c2ccccc2)cc1C", "AC40": "3.33 µM"}, {"smiles": "CN(/N=C/c1ccc2c(c1)OCO2)c1ccccc1", "AC40": "1.34 µM"}, {"smiles": "Nc1ccc2oc(=O)c3ccccc3c2c1", "AC40": "3.19 µM"}, {"smiles": "Cn1cc(Br)c(C(=O)N/N=C/c2cc3c(cc2Cl)OCO3)n1", "AC40": "9.65 µM"}, {"smiles": "CC(C)Nc1oc(-c2cccc3ccccc23)nc1C#N", "AC40": "9.14 µM"}, {"smiles": "O=C1CCCc2nc3c(cc21)C(O)Oc1c-3ccc2ccccc12", "note": "(configuration not stated)", "AC40": "1.52 µM"}, {"smiles": "COC(=O)c1c(C)[nH]c(/C=N/Nc2ccccc2)c1C", "AC40": "> 35 µM (inactive)"}, {"smiles": "N#C/C(=N\\Nc1ccccc1F)C(=N)N1CCCCC1", "AC40": "2.13 µM"}, {"smiles": "N/C(=N\\OC(=O)c1ccc2c(c1)OCO2)c1ccc(Cl)cc1", "AC40": "5.31 µM"}, {"smiles": "O=C(O)c1ccc(-c2nc(-c3ccc(Cl)cc3)cs2)cc1", "AC40": "0.309 µM"}, {"smiles": "CCn1cnc2cc(NCc3ccccc3Cl)ccc21", "AC40": "14.6 µM"}, {"smiles": "CC(=O)Nc1cccc(-c2nc3ccc(NC(C)=O)cc3s2)c1", "AC40": "1.29 µM"}, {"smiles": "CCC(C)c1ccc(NC(=O)Nc2cccnc2)cc1", "note": "(configuration not stated)", "AC40": "2.21 µM"}, {"smiles": "Oc1cccc(-c2nc3ccc4ccccc4c3c3c2CCC3)c1", "AC40": "3.02 µM"}, {"smiles": "c1ccc2nc(-c3nccs3)ccc2c1", "AC40": "8.94 µM"}, {"smiles": "O=C(Nc1ccccc1)Nc1ccc2nnsc2c1", "AC40": "13.1 µM"}, {"smiles": "CC(=O)c1cccc(OCc2cc(C(=O)N(C)Cc3cnccn3)no2)c1", "AC40": "9.27 µM"}, {"smiles": "O=C(CCNc1ccccc1)c1ccc2c(c1)OCO2", "AC40": "1.12 µM"}, {"smiles": "COc1cc(/C=C2\\SC(=S)N(Nc3ccccc3)C2=O)ccc1O", "AC40": "3.01 µM"}, {"smiles": "O=C(NCCc1ccc(O)cc1)c1ccc(Cl)cc1", "AC40": "2.89 µM"}, {"smiles": "C=CCn1cnc2c(nnn2-c2ccc(C)c(C)c2)c1=O", "AC40": "11.9 µM"}, {"smiles": "COc1ccc(NC(=O)CN(C)C(=O)CNC(=O)c2sc3ccccc3c2Cl)cc1", "AC40": "7.78 µM"}, {"smiles": "COc1ccc(-c2nnc(-c3ccc4ccccc4c3)o2)cc1", "AC40": "4.3 µM"}, {"smiles": "COc1cccc2cc(CC(=O)c3ccc(C)cc3C)c(=O)oc12", "AC40": "11.9 µM"}, {"smiles": "O=C(Nc1ccc(OC(F)F)c(Cl)c1)c1ccccn1", "AC40": "0.461 µM"}, {"smiles": "CCc1ccc(NC(=O)C(=S)NC2CCCCC2)cc1", "AC40": "0.542 µM"}, {"smiles": "Cc1cnc(NC(=O)Nc2ccc(Cl)cc2)s1", "AC40": "1.38 µM"}, {"smiles": "COc1ccccc1N1CCN(/N=C/c2cccc(Cl)c2)CC1", "AC40": "1.45 µM"}, {"smiles": "COc1ccc2c(c1)CC/C(=C\\Nc1ccc3c(c1)OCO3)C2=O", "AC40": "2.3 µM"}, {"smiles": "c1cnc2nc(-c3ccc4c(c3)OCO4)cn2c1", "AC40": "13.7 µM"}, {"smiles": "COc1ccc(/C=N/Nc2ccccn2)cc1O", "AC40": "3.01 µM"}, {"smiles": "CCCn1ncc2c(Nc3ccc(C)c(C)c3)ncnc21", "AC40": "4.16 µM"}, {"smiles": "Cc1ccc(-c2csc(C(C#N)=C3CCCC3)n2)cc1", "AC40": "2.84 µM"}, {"smiles": "O=C(NCc1ccc2c(c1)OCO2)Nc1cccc(Cl)c1", "AC40": "8.57 µM"}, {"smiles": "CCCSc1ccc(C(=O)Nc2ccc(F)cc2F)cn1", "AC40": "27.2 µM"}, {"smiles": "COc1ccc(NC(=O)CCCn2c(=O)oc3ccccc32)cc1Cl", "AC40": "3.94 µM"}, {"smiles": "CCCN1C(=O)C(=O)N(CC(=O)c2cc(C)n(C3CC3)c2C)C1=O", "AC40": "24.8 µM"}, {"smiles": "Clc1ccc(C#Cc2cccnc2)cc1", "AC40": "5.78 µM"}, {"smiles": "N#Cc1c(-c2ccc(Cl)cc2)ccn2nc(C3CCCCC3)nc12", "AC40": "2.4 µM"}, {"smiles": "c1ccc2c(c1)NC1(CCCC1)n1c-2nc2ccccc21", "AC40": "11.3 µM"}, {"smiles": "COc1ccc(C(=O)CN2Cc3ccccc3C2=N)cc1", "AC40": "4.86 µM"}, {"smiles": "CC(=O)Nc1ccc2c(c1)ncn2-c1ccccc1", "AC40": "2.76 µM"}, {"smiles": "CC(=O)NCCC1CCCCN1C(=O)c1cc(COc2cc(C)ccc2C)on1", "note": "(configuration not stated)", "AC40": "3.2 µM"}, {"smiles": "Cc1nc2ccccc2nc(=O)c1NNc1ccccc1", "AC40": "3.99 µM"}, {"smiles": "COc1ccc2nc3ccccc3nc2c1", "AC40": "4.11 µM"}, {"smiles": "CC1CCC(NC(=O)c2cc3ccccc3cc2O)CC1", "note": "(configuration not stated)", "AC40": "2.64 µM"}, {"smiles": "O=C(CCCc1ccccc1)c1ccccc1", "AC40": "0.326 µM"}, {"smiles": "CC(C)C[C@@H](CSc1ccccc1)N1CCN(CC(C)C)CCC1=O", "AC40": "4.58 µM"}, {"smiles": "CCS(=O)(=O)c1ccc2oc(Nc3ccccc3C)nc2c1", "AC40": "3.65 µM"}, {"smiles": "COc1ccccc1-c1cnn2c(NC3CCCC3)cc(C)nc12", "AC40": "4.09 µM"}, {"smiles": "NNC(=O)c1ccc2nc(-c3ccc(Br)cc3)cn2c1", "AC40": "11.3 µM"}, {"smiles": "C/C(=C\\c1ccc(N)cc1)c1nc2ccccc2[nH]1", "AC40": "1.72 µM"}, {"smiles": "CC(=O)c1ccc2c(c1)Cc1cc(C(C)=O)ccc1-2", "AC40": "1.19 µM"}, {"smiles": "Cc1cccc(-c2nc(C#N)c(NC3CCCCC3)o2)c1", "AC40": "1.29 µM"}, {"smiles": "O=C(NOCc1ccccc1)OCc1ccccc1", "AC40": "6.91 µM"}, {"smiles": "Cc1ccc(OC(=O)c2cccc(S(=O)(=O)N3CCCC3)c2)c(-n2nc3ccccc3n2)c1", "AC40": "1.41 µM"}, {"smiles": "COc1ccc(/C(N)=N/OC(=O)c2cccs2)cc1OC", "AC40": "6.41 µM"}, {"smiles": "COc1ccc(/C=C/c2nc3ccccc3n2Cc2ccc(OC)c(OC)c2)cc1", "AC40": "1.93 µM"}, {"smiles": "O=C(Nc1ccc(Cl)c(Cl)c1)OCc1cccnc1", "AC40": "7.44 µM"}, {"smiles": "O=c1nc2sc3ccccc3n2c(=O)n1-c1ccc(Cl)cc1", "AC40": "3.48 µM"}, {"smiles": "O=S(=O)(c1ccccc1)n1ccc(-c2cnc(-c3ccccc3)s2)n1", "AC40": "7.87 µM"}]}]}
